Results on 3 compounds are retold here after patent US20200000752A1, “Method for Treating Epilepsy” (Vanderbilt University, priority 2016, published 2020).

The IC50 is the concentration at which inhibition is half-maximal. Lower therefore signals inhibition by little substance.

In one series the test system is MDCKII cells. The experiment in a line: MDCKII bidirectional assay. In kind it is in vitro ADME. From the text: MDCKII bidirectional assay was run in collaboration with Dr. Shaun Stauffer in Vanderbilt Institute of Chemical Biology (VICB) synthesis core who is a consultant on this project.
A further series relates to Scn1a^+/− mice. Particulars: for Number SWDs: SWDs over 1 sec, 30 min after PTZ 50 mg/kg, n=2, celastrol 0.3 mg/kg intermittent (8th day of drug holiday), diazepam 0.3 mg/kg, stiripentol 150 mg/kg, saline 21.
Series [1] relates to cytochrome P450 enzymes (CYPs). The following applies: cited from earlier work.
The target of a further series is CYP 2C9 (Homo sapiens, UniProt P11712). The experiment in a line: biochemical.
CYP 2C9, sequence (P11712 whole entry): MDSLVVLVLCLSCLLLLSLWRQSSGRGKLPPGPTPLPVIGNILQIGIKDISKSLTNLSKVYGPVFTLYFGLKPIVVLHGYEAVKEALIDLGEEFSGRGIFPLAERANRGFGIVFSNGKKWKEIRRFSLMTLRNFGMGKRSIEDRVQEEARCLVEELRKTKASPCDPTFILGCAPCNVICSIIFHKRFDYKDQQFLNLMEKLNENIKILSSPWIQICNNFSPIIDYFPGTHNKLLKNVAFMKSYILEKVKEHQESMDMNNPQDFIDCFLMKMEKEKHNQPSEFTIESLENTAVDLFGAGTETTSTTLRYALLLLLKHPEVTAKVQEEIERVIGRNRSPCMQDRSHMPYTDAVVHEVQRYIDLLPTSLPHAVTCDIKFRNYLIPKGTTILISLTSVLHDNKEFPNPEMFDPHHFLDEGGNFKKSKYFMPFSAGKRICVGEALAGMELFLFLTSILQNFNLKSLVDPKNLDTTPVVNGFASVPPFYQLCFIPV
For series [2], the target named is T1, CYP 1A2 (Homo sapiens, UniProt P05177). Description: CYP inhibition, 1A2.
T1 sequence (P05177 whole entry): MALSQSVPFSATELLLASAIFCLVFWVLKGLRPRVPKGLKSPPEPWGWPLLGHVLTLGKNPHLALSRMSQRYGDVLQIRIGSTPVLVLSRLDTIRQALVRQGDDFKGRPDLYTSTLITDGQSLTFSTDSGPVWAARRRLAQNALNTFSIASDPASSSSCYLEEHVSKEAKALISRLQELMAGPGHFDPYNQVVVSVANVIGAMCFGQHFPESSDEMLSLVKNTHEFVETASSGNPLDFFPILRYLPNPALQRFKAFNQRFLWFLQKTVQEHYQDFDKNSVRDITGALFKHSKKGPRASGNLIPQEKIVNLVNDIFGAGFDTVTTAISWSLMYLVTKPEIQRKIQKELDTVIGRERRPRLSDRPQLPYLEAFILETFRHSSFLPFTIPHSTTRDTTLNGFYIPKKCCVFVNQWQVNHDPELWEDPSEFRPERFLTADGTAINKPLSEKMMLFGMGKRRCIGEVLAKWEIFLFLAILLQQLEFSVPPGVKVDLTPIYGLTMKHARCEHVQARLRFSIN
Series [3] addresses T1, CYP 1A2. The experiment in a line: biochemical.
A further series deals with CYP 2D6 (Homo sapiens, UniProt P10635). The experiment in a line: biochemical.
CYP 2D6, sequence (P10635 whole entry): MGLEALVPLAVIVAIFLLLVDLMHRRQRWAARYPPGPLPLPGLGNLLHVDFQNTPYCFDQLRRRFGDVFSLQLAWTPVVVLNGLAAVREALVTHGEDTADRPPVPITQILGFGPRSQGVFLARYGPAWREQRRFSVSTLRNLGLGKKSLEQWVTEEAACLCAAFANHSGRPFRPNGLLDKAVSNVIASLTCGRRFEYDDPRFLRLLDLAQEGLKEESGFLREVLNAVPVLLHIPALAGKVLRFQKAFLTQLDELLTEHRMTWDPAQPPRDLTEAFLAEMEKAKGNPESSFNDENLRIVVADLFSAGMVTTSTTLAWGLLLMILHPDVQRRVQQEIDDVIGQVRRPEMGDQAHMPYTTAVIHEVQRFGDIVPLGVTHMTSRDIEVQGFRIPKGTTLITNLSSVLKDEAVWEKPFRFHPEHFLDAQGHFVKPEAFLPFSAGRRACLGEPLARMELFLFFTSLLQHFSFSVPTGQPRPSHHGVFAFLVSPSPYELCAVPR
The target of series [4] is T2, CYP 2C19 (Homo sapiens, UniProt P33261).
T2 sequence (P33261 whole entry): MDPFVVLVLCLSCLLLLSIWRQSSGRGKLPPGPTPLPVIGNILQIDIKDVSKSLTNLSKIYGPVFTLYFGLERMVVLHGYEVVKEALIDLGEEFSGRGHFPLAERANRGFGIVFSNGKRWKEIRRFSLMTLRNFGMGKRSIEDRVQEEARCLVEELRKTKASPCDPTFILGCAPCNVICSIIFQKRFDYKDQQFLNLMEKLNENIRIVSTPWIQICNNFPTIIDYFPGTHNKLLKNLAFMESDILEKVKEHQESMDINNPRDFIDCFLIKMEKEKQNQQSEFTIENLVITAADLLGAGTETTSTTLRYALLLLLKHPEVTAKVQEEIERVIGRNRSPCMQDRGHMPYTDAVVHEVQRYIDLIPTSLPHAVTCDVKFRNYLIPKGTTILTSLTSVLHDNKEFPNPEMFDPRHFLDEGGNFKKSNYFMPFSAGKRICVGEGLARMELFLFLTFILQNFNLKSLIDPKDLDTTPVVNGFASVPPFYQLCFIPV
For the next series, the target named is CYP 2C8 (Homo sapiens, UniProt P10632). Description: biochemical.
CYP 2C8, sequence (P10632 whole entry): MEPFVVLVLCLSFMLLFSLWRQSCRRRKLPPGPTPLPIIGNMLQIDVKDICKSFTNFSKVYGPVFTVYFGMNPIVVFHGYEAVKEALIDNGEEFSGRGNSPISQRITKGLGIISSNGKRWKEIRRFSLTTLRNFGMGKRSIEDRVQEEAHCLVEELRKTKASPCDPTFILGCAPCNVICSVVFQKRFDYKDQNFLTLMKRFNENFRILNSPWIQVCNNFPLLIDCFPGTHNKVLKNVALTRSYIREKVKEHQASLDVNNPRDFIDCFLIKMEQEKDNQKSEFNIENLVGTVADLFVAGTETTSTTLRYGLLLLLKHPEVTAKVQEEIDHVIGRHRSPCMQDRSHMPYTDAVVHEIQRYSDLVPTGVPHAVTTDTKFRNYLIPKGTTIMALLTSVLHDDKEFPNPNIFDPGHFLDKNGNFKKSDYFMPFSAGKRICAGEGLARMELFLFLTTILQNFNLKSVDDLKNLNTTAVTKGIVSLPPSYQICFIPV
A further series deals with CYP 2B6 (Homo sapiens, UniProt P20813). The experiment in a line: biochemical.
CYP 2B6, sequence (P20813 whole entry): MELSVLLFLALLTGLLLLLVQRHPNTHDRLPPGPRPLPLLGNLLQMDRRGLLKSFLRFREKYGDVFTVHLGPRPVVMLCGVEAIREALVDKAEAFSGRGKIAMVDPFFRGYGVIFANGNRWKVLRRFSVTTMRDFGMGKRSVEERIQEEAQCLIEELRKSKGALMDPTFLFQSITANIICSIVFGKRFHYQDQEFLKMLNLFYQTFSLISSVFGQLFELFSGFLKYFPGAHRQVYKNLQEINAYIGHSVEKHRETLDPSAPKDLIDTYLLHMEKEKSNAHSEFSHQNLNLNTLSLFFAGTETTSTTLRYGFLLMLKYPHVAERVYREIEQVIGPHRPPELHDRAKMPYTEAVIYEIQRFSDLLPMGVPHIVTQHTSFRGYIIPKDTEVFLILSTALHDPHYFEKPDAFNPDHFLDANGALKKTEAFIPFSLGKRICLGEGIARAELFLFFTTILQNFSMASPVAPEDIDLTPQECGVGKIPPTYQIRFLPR
Series [5] has as its target T2, CYP 2C19. The experiment in a line: biochemical.

Entries after “also recorded” stand apart in the source; their conditions may differ.

Consider `COc1cc(/C=C/C(=O)CC(=O)/C=C/c2ccc(O)c(OC)c2)ccc1O` [curcumin, reference compound], for which the “permeability in MDCK II bidirectional assay, in words” value with MDCKII cells is listed as “impermeable”.

On to `CN1C(=O)CN=C(c2ccccc2)c2cc(Cl)ccc21` [Diazepam], for which the “Number SWDs” value in the series on Scn1a^+/− mice was 8.

Consider `CC(C)(C)C(O)/C=C/c1ccc2c(c1)OCO2` (stereo not shown) [Stiripentol], for which the “CYP inhibition as reported in the literature” value in [1] was “inhibit CYPs including 1A2, 2C9, 2C19, 2D6 and 3A4”. Besides, the half-maximal inhibitory concentration (IC50) was greater than 10 µM against CYP 2C9; 1.26 µM against CYP 1A2 [3]; greater than 10 µM on CYP 2D6; greater than 10 µM at CYP 2C8; 8.82 µM on CYP 2B6; 1.84 µM against CYP 2C19 [5]. The “inhibition of 1A2, in words” value against CYP 1A2 [2] is “potent inhibitor; also recorded: very potent inhibitor”. The “Number SWDs” value with Scn1a^+/− mice is listed as 11. For the same compound, the appearance and mortality entry with Scn1a^+/− mice (mouse, in vivo, 300 mg/kg) was “appeared lethargic and had increased mortality”. Moreover, on CYP 2C19 [4], the “inhibition of 2C19, in words” value is “potent inhibitor; also recorded: very potent inhibitor”.
